In patent publication US20120282266A1, “ANTI-NEOPLASTIC USES OF ARTEMIN ANTAGONISTS” (AUCKLAND UNISERVICES LIMITED, priority 2009, published 2012):

Tests used:
ARTN = experiment: Western blot for ARTN protein expression in BT549 and MDA-MB-231 cell pairs; assay type: cell-based, human; details: BT549 wild type cells, with paclitaxel vs without paclitaxel
Protocol: Western blot analysis was performed as described previously (Liu and Lobie, 2007) using the following antibodies: goat anti-artemin polyclonal antibody (R&D systems, Minneapolis, Minn.) and mouse anti-β-Actin monoclonal antibody (Sigma, St Louis, Mo.).
Western blot analysis was performed as described above in Example 1.
Reagents, Western blot analysis, and cell function and viability assays were all done as described above in Example 2.

BT549 PTX Res cells = experiment: Cell function assays (monolayer viability, soft agar colony formation, 3D matrigel growth), BT549-PTX Res; assay type: cell-based
Protocol: (§1) For soft agar colony formation assay, cells were cultured in 96-well plates first covered with a layer of agar (0.5%). Cells were grown in medium containing 10% FBS. 5×10^3 cells were seeded into 100 μl 0.35% agarose and onto the 0.5% agarose base layer. 100 μl serum-supplemented medium containing drug or antibody was added on the top and changed every 3 days. The plates were incubated at 37° C. in a humidified incubator. After 10 days, alarmarBlue® was added (1:10 volume reagent, Invitrogen) and incubated at 37° C. for 4 hours, followed by measurement of fluorescence with excitation wavelength at 530 nm and emission wavelength at 590 nm.
For the 3D Matrigel™ culture, monolayer grown cells were harvested by trypsinization, taken up in the complete medium, and separated into single-cell suspension by several passages through a Pasteur pipette. After this, 50 μl complete medium containing 5,000 cells was added to 150 μl of growth factor reduced Matrigel™ (Becton Dickinson, Bedford, Mass.) diluted 1:1 with complete media with 20% FBS. […] Organoid formation was counted in randomly chosen fields with light microscopy. […]
Cell viability, soft agar colony formation assay and 3D matrigel growth assays were performed as described above in Example 1. For the cell viability assay, 3000 cells were seeded into 100 ul media(2% FBS) and every 24 h viability was determined.

[1] = test system: TAMS cells (tamoxifen sensitive MCF-7); experiment: Cell number growth assay in estrogen free medium, TAMS cells; assay type: cell-based, human; details: 1 μM tamoxifen, 7 days
Protocol: (§2) For estrogen-free cell culture, MCF-7 cells were cultured in phenol red free RPMI-1640 supplemented with 10% dextran coated charcoal stripped fetal bovine serum (CS-FBS) for 3 days before estrogen or antiestrogen treatment. The tamoxifen resistant (TAMR) cell line was established as described by Shaw et al. (2006). Briefly, the parental MCF-7 cells were continuously exposed for 6 months to 1 μM tamoxifen in phenol red free RPMI 1640 medium containing 10% CS-FBS until the cells developed resistance to the growth inhibitory effect of tamoxifen. MCF-7 cells sensitive to tamoxifen, cultured in the same medium without tamoxifen, were designated as tamoxifen sensitive (TAMS) cells. Cells were seeded onto 6-well plates at a density of 5×10^4 cells per well, in triplicate, in 3 ml of complete medium containing 10% or 0.2% FBS. Cells were cultured under these conditions for up to 10 days with medium changed every other day until harvesting. To compare the cell proliferation rate, the total cell number in each well was quantified with a haemocytometer every 2 days. Cell viability was assessed by using trypan blue.

artemin = experiment: Artemin expression by semi-quantitative RT-PCR and Western blot in TAMS/TAMR cells; assay type: cell-based, human; details: 1 μM tamoxifen, 72 hours
Protocol: Total RNA was isolated from cultured cells with Trizol reagent (Invitrogen) at 1 ml/10 cm2 according to the manufacturer's instructions. RNA was resuspended in diethyl pyrocarbonate (DEPC)-treated nuclease-free water. RNA samples were further treated with DNase I for 30 min at 37° C. The reaction was stopped by addition of 25 mM EDTA and incubation at 65° C. for 15 min. RNA samples were then purified by extraction in phenol/chloroform (pH 5.2, phenol:chloroform:isoamyl alcohol at 25:24:1) followed by an additional chloroform extraction and ethanol precipitation. Quantification and purity of the RNA was assessed by A260/A280 absorption, and RNA quality was assessed by agarose gel electrophoresis. RNA samples with ratios of A260/A280 greater than 1.6 were stored at −80° C. for further analysis.
One-step reverse transcription (RT)-PCR kit (Qiagen) was used to determine the presence of artemin transcript using a pair of primers: 5′-[…]-3 (forward; SEQ ID NO: 41) and 5′-[…]-3′ (reverse; SEQ ID NO: 42). For RT-PCR, the following procedure was employed. To start, 1 μg of total RNA was diluted to 0.1 μg/μl to minimize the variation of sample handling. This dilution was treated by DNase I for 15 min, followed by inactivation of DNase by adding EDTA to 5 mM and heating to 70° C. for 15 min. […]

[2] = test system: TAMR cells (tamoxifen resistant MCF-7); experiment: Soft agar colony formation (anchorage independent growth), TAMR cells; assay type: cell-based, human; details: 1 μM tamoxifen alone, 10 days
Protocol: as §1
To perform soft agar colony formation assays, 50 μl of 0.5% agarose in serum containing medium was plated onto each well of 96-well flat-bottom microplates, as a base agar layer. Next, 5×10^3 cells in a […] mixture of 0.35% agarose in serum containing medium were plated onto the base layer. Subsequently, 100 μl of the medium was added to prevent drying of the agarose gels. For antibody treatment, the antibodies at the indicated concentrations were added into the top agar layer and the culture medium to ensure the complete exposure of cells to antibodies. […] The plate was shaken briefly and then read at 595 nm (test wavelength) and 690 nm (reference wavelength) using the Synergy™ 2 Multi-Mode Microplate Reader (BioTek instruments, Inc., Vermont, USA).

[3] = test system: TAMR cells (tamoxifen resistant MCF-7); experiment: Cell number growth assay in estrogen free medium, TAMR cells; assay type: cell-based, human; details: 1 μM tamoxifen, 7 days
Protocol: as §2

SMILES	ARTN expression (ARTN)	difference in sensitivity to paclitaxel, resistant subline vs parental line (BT549 PTX Res cells; BT549-PTX Res vs parental BT549) [fold]	sensitivity to paclitaxel in monolayer proliferation, colony formation in soft agar and 3D matrigel growth (BT549 PTX Res cells; paclitaxel resistant cells compared to paclitaxel sensitive cells)	growth of TAMS cells [1]	artemin expression (mRNA and protein) (artemin; TAMR cells)	artemin expression (mRNA and protein) (artemin; TAMS cells)	colony formation in soft agar [2]	growth of TAMR cells [3]
CC(=O)O[C@H]1C(=O)[C@@]2(C)[C@H]([C@H](OC(=O)c3ccccc3)[C@]3(O)C[C@H](OC(=O)[C@H](O)[C@@H](NC(=O)c4ccccc4)c4ccccc4)C(C)=C1C3(C)C)[C@]1(OC(C)=O)CO[C@@H]1C[C@@H]2O [paclitaxel]	increased ARTN expression	~2	less sensitivity to paclitaxel					
CC/C(=C(\c1ccccc1)c1ccc(OCCN(C)C)cc1)c1ccccc1 [tamoxifen]				retained the response to E2 and tamoxifen sensitivity	retained elevated artemin expression	markedly abrogated artemin expression	did not affect colony formation	loss of response to E2 and of tamoxifen sensitivity
